These results are taken from US8574563B2 (Bristol-Myers Squibb Company, priority 2006, dated 2013).

The test system of this assay is HCV 1b-377-neo replicon cells. Put plainly: HCV replicon assay, HCV 1b-377-neo replicon cells (1b FRET). Format: cell-based, Hepatitis C virus genotype 1b. The note with it: HCV 1b-377-neo replicon cells, HCV 1b genotype, read-out: EC50 range against HCV 1b (Table 2, Range). Put shortly:
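FRET-based replicon assay in HCV 1b-377-neo cells, including a comparison line carrying the NS5A Y2065H mutation that confers resistance to a reference compound.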
(In general: In antiviral work, replicon cells carry a viral genome segment that copies itself.)

Like-named read-outs stand apart in the source and are kept apart here.

The term EC50 denotes the concentration needed to bring the measured effect to its halfway point.

Turning to `CCN(CC)[C@@H](C(=O)N1CCC[C@H]1c1ncc(-c2ccc(-c3ccc(-c4cnc([C@@H]5CCCN5C(=O)[C@@H](c5ccccc5)N5CCOCC5)[nH]4)cc3)cc2)[nH]1)c1ccccc1` [Example M48, (1R)-N,N-diethyl-2-((2S)-2-(5-(4′-(2-((2S)-1-((2R)-2-(4-morpholinyl)-2-phenylacetyl)-2-pyrrolidinyl)-1H-imidazol-5-yl)-4-biphenylyl)-1H-imidazol-2-yl)-1-pyrrolidinyl)-2-oxo-1-phenylethanamine], the EC50 (Hepatitis C virus) was in the range of 1 to 99 nM.

For `CCN(CC)[C@@H](C(=O)N1CCC[C@H]1c1ncc(-c2ccc(-c3ccc(-c4cnc([C@@H]5CCCN5C(=O)[C@H](C)NC(=O)OC)[nH]4)cc3)cc2)[nH]1)c1ccccc1` [Example M49, methyl ((1S)-2-((2S)-2-(5-(4′-(2-((2S)-1-((2R)-2-(diethylamino)-2-phenylacetyl)-2-pyrrolidinyl)-1H-imidazol-5-yl)-4-biphenylyl)-1H-imidazol-2-yl)-1-pyrrolidinyl)-1-methyl-2-oxoethyl)carbamate], for the setting “Hepatitis C virus”, the concentration for a half-maximal effect (EC50) lay in the range of 1 to 99 nM.

As to `CCN(CC)[C@@H](C(=O)N1CCC[C@H]1c1ncc(-c2ccc(-c3ccc(-c4cnc([C@@H]5CCCN5C(=O)CNC(=O)OC)[nH]4)cc3)cc2)[nH]1)c1ccccc1` [Example M50, methyl (2-((2S)-2-(5-(4′-(2-((2S)-1-((2R)-2-(diethylamino)-2-phenylacetyl)-2-pyrrolidinyl)-1H-imidazol-5-yl)-4-biphenylyl)-1H-imidazol-2-yl)-1-pyrrolidinyl)-2-oxoethyl)carbamate], where the note is “Hepatitis C virus”, the EC50 lay in the range of 1 to 99 nM.

Consider `CCN(CC)[C@@H](C(=O)N1CCC[C@H]1c1ncc(-c2ccc(-c3ccc(-c4cnc([C@@H]5CCCN5C(=O)N5CCOCC5)[nH]4)cc3)cc2)[nH]1)c1ccccc1` [Example M51, (1R)-N,N-diethyl-2-((2S)-2-(5-(4′-(2-((2S)-1-(4-morpholinylcarbonyl)-2-pyrrolidinyl)-1H-imidazol-5-yl)-4-biphenylyl)-1H-imidazol-2-yl)-1-pyrrolidinyl)-2-oxo-1-phenylethanamine], for which, under “Hepatitis C virus”, the EC50 lay within 1 to 99 nM.

As to `CCN(CC)[C@@H](C(=O)N1CCC[C@H]1c1ncc(-c2ccc(-c3ccc(-c4cnc([C@@H]5CCCN5C(=O)[C@@H](c5ccccc5)N(C)C)[nH]4)cc3)cc2)[nH]1)c1ccccc1` [Example M52, (1R)-2-((2S)-2-(5-(4′-(2-((2S)-1-((2R)-2-(diethylamino)-2-phenylacetyl)-2-pyrrolidinyl)-1H-imidazol-5-yl)-4-biphenylyl)-1H-imidazol-2-yl)-1-pyrrolidinyl)-N,N-dimethyl-2-oxo-1-phenylethanamine], for the setting “Hepatitis C virus”, the EC50 lay in the range of 1 to 99 nM.

As to `CCN(CC)[C@@H](C(=O)N1CCC[C@H]1c1ncc(-c2ccc(-c3ccc(-c4cnc([C@@H]5CCCN5C(=O)[C@@H](C)NC(=O)OC)[nH]4)cc3)cc2)[nH]1)c1ccccc1` [Example M53, methyl ((1R)-2-((2S)-2-(5-(4′-(2-((2S)-1-((2R)-2-(diethylamino)-2-phenylacetyl)-2-pyrrolidinyl)-1H-imidazol-5-yl)-4-biphenylyl)-1H-imidazol-2-yl)-1-pyrrolidinyl)-1-methyl-2-oxoethyl)carbamate], the EC50 (Hepatitis C virus) lay within 1 to 99 nM.

In the case of `CC[C@@H](NC(=O)OC)C(=O)N1CCC[C@H]1c1ncc(-c2ccc(-c3ccc(-c4cnc([C@@H]5CCCN5C(=O)[C@@H](c5ccccc5)N(CC)CC)[nH]4)cc3)cc2)[nH]1` [Example M54, methyl ((1R)-1-(((2S)-2-(5-(4′-(2-((2S)-1-((2R)-2-(diethylamino)-2-phenylacetyl)-2-pyrrolidinyl)-1H-imidazol-5-yl)-4-biphenylyl)-1H-imidazol-2-yl)-1 pyrrolidinyl)carbonyl)propyl) carbamate], the EC50 was 1 to 99 nM.

Regarding `CC[C@H](NC(=O)OC)C(=O)N1CCC[C@H]1c1ncc(-c2ccc(-c3ccc(-c4cnc([C@@H]5CCCN5C(=O)[C@@H](c5ccccc5)N(CC)CC)[nH]4)cc3)cc2)[nH]1` [Example M55, methyl ((1S)-1-(((2S)-2-(5-(4′-(2-((2S)-1-((2R)-2-(diethylamino)-2-phenylacetyl)-2-pyrrolidinyl)-1H-imidazol-5-yl)-4-biphenylyl)-1H-imidazol-2-yl)-1-pyrrolidinyl)carbonyl)propyl)carbamate], the EC50 (Hepatitis C virus) fell in the range of 1 to 99 nM.

Regarding `CCN(CC)[C@@H](C(=O)N1CCC[C@H]1c1ncc(-c2ccc(-c3ccc(-c4cnc([C@@H]5CCCN5C(=O)[C@H](NC(=O)OC)C5CC5)[nH]4)cc3)cc2)[nH]1)c1ccccc1` [Example M56, methyl ((1R)-1-cyclopropyl-2-((2S)-2-(5-(4′-(2-((2S)-1-((2R)-2-(diethylamino)-2-phenylacetyl)-2-pyrrolidinyl)-1H-imidazol-5-yl)-4-biphenylyl)-1H-imidazol-2-yl)-1-pyrrolidinyl)-2-oxoethyl)carbamate], under “Hepatitis C virus”, the half-maximal effective concentration (EC50) lay in the range of 1 to 99 nM.

Consider `CCN(CC)[C@@H](C(=O)N1CCC[C@H]1c1ncc(-c2ccc(-c3ccc(-c4cnc([C@@H]5CCCN5C(=O)[C@@H](NC(=O)OC)C5CC5)[nH]4)cc3)cc2)[nH]1)c1ccccc1` [Example M57, methyl ((1S)-1-cyclopropyl-2-((2S)-2-(5-(4′-(2-((2S)-1-((2R)-2-(diethylamino)-2-phenylacetyl)-2-pyrrolidinyl)-1H-imidazol-5-yl)-4-biphenylyl)-1H-imidazol-2-yl)-1-pyrrolidinyl)-2-oxoethyl)carbamate], for which the concentration giving a half-maximal response (EC50) (Hepatitis C virus) is 1 to 99 nM.

Consider `CCN(CC)[C@@H](C(=O)N1CCC[C@H]1c1ncc(-c2ccc(-c3ccc(-c4cnc([C@@H]5CCCN5C(=O)[C@@H](NC(=O)OC)C(C)C)[nH]4)cc3)cc2)[nH]1)c1ccccc1` [Example M58, methyl ((1S)-1-(((2S)-2-(5-(4′-(2-((2S)-1-((2R)-2-(diethylamino)-2-phenylacetyl)-2-pyrrolidinyl)-1H-imidazol-5-yl)-4-biphenylyl)-1H-imidazol-2-yl)-1-pyrrolidinyl)carbonyl)-2-methylpropyl)carbamate], for which the EC50 (Hepatitis C virus) was 1 to 99 nM.

With `CCN(CC)[C@@H](C(=O)N1CCC[C@H]1c1ncc(-c2ccc(-c3ccc(-c4cnc([C@@H]5CCCN5C(=O)[C@@H](NC(=O)OC)C(C)(C)C)[nH]4)cc3)cc2)[nH]1)c1ccccc1` [Example M59, methyl ((1S)-1-(((2S)-2-(5-(4′-(2-((2S)-1-((2R)-2-(diethylamino)-2-phenylacetyl)-2-pyrrolidinyl)-1H-imidazol-5-yl)-4-biphenylyl)-1H-imidazol-2-yl)-1-pyrrolidinyl)carbonyl)-2,2-dimethylpropyl)carbamate], the EC50 (Hepatitis C virus) lay within 1 to 99 nM.

For `C=CC[C@H](NC(=O)OC)C(=O)N1CCC[C@H]1c1ncc(-c2ccc(-c3ccc(-c4cnc([C@@H]5CCCN5C(=O)[C@@H](c5ccccc5)N(CC)CC)[nH]4)cc3)cc2)[nH]1` [Example M60, methyl ((1S)-1-(((2S)-2-(5-(4′-(2-((2S)-1-((2R)-2-(diethylamino)-2-phenylacetyl)-2-pyrrolidinyl)-1H-imidazol-5-yl)-4-biphenylyl)-1H-imidazol-2-yl)-1-pyrrolidinyl)carbonyl)-3-buten-1-yl)carbamate], the 50% effective concentration (EC50) (Hepatitis C virus) was 1 to 99 nM.

For the molecule `CCN(CC)[C@@H](C(=O)N1CCC[C@H]1c1ncc(-c2ccc(-c3ccc(-c4cnc([C@@H]5CCCN5C(=O)[C@H](COC)NC(=O)OC)[nH]4)cc3)cc2)[nH]1)c1ccccc1` [Example M61, methyl ((1S)-2-((2S)-2-(5-(4′-(2-((2S)-1-((2R)-2-(diethylamino)-2-phenylacetyl)-2-pyrrolidinyl)-1H-imidazol-5-yl)-4-biphenylyl)-1H-imidazol-2-yl)-1-pyrrolidinyl)-1-(methoxymethyl)-2-oxoethyl)carbamate], the EC50 (Hepatitis C virus) is 1 to 99 nM.

For the molecule `CCC[C@H](NC(=O)OC)C(=O)N1CCC[C@H]1c1ncc(-c2ccc(-c3ccc(-c4cnc([C@@H]5CCCN5C(=O)[C@@H](c5ccccc5)N(CC)CC)[nH]4)cc3)cc2)[nH]1` [Example M62, methyl ((1S)-1-(((2S)-2-(5-(4′-(2-((2S)-1-((2R)-2-(diethylamino)-2-phenylacetyl)-2-pyrrolidinyl)-1H-imidazol-5-yl)-4-biphenylyl)-1H-imidazol-2-yl)-1-pyrrolidinyl)carbonyl)butyl)carbamate], the EC50 (Hepatitis C virus) was in the range of 1 to 99 nM.

Regarding `CCN(CC)[C@H](C)C(=O)N1CCC[C@H]1c1ncc(-c2ccc(-c3ccc(-c4cnc([C@@H]5CCCN5C(=O)[C@H](NC(=O)OC)c5ccccc5)[nH]4)cc3)cc2)[nH]1` [Example M63, methyl ((1R)-2-((2S)-2-(5-(4′-(2-((2S)-1-(N,N-diethyl-D-alanyl)-2-pyrrolidinyl)-1H-imidazol-5-yl)-4-biphenylyl)-1H-imidazol-2-yl)-1-pyrrolidinyl)-2-oxo-1-phenylethyl)carbamate], the EC50 (Hepatitis C virus) lay within 1 to 99 nM.

In the case of `CCCN(CCC)[C@H](C)C(=O)N1CCC[C@H]1c1ncc(-c2ccc(-c3ccc(-c4cnc([C@@H]5CCCN5C(=O)[C@H](NC(=O)OC)c5ccccc5)[nH]4)cc3)cc2)[nH]1` [Example M64, methyl ((1R)-2-((2S)-2-(5-(4′-(2-((2S)-1-(N,N-dipropyl-D-alanyl)-2-pyrrolidinyl)-1H-imidazol-5-yl)-4-biphenylyl)-1H-imidazol-2-yl)-1-pyrrolidinyl)-2-oxo-1-phenylethyl)carbamate], the EC50 (Hepatitis C virus) lay within 1 to 99 nM.

`COC(=O)N[C@@H](C(=O)N1CCC[C@H]1c1ncc(-c2ccc(-c3ccc(-c4cnc([C@@H]5CCCN5C(=O)c5cnc[nH]5)[nH]4)cc3)cc2)[nH]1)c1ccccc1` [Example M65, methyl ((1R)-2-((2S)-2-(5-(4′-(2-((2S)-1-(1H-imidazol-5-ylcarbonyl)-2-pyrrolidinyl)-1H-imidazol-5-yl)-4-biphenylyl)-1H-imidazol-2-yl)-1-pyrrolidinyl)-2-oxo-1-phenylethyl)carbamate]: the EC50 (Hepatitis C virus) lay in the range of 1 to 99 nM.
